Assay results published in patent EP2699223B1, “NEW COSMETIC USES OF GHK TRIPEPTIDE” (Sederma, priority 2011, dated 2012).
Peptide text beside a SMILES is read from it. * marks the point of attachment. Biotin = O=C1N[C@H]2[C@H](CS[C@H]2CCCCC(=O)*)N1

Assays:
Assay type in all cases: in vivo, female volunteers
[1] = test system: lashes; assay: Lash length by photo measurement and image analysis, double-blind clinical study, mascara on one eye versus placebo on the other; details: length and diameter, 15 and 30 days
Procedure: The purpose of the clinical study was to evaluate the following among volunteers: • lash lengthening, • lash thickening, • reinforcement of lash anchorage (decrease in lash loss during mascara removal).
(§1) Lashes were photographed in a precise manner that could be reproduced and at a special angle so that lashes could be viewed perfectly. An image analysis was then performed on these photographs to quantify lash length and diameter in the central segment of the lids of female volunteers.
(§2) This was a double-blind study that employed non-invasive methods. 30 female volunteers used two mascaras: 1) VOLUMISING BLACK MASCARA (according to Example 1) containing 0.00066% of Biot-GHK and 0.01% of panthenol on one eye and 2) its placebo on the other eye (same formula without the active ingredients of the invention).
The measurements were performed before application (TO) then after 15 and 30 days of daily application. Application during the eight hours preceding a measurement day was not allowed. […]
Once the head was correctly positioned on an appropriate mechanism, the lashes were frontally photographed using a Reflex Nikon D300 (12.3 megapixel) digital camera with a "macro" (60 mm F/2.8 GED) lens and a flash. The images were analysed with special software. […] The lengths and diameters were measured on the lashes of segments S2, S3 and S4 (5 lashes per segment) on each side.

[2] = test system: lashes; assay: Lash diameter by photo measurement and image analysis, same double-blind clinical study; details: after 30 days of daily use; 2% in a basic mascara formula
Procedure: as §1, §2
The measurements were performed before application (TO) then after 15 and 30 days of daily application. Application during the eight hours preceding a measurement day was not allowed.
The volunteers had to apply each mascara as follows: 3 brush strokes to the outside lashes, 4 brush strokes to the central lashes and 3 brush strokes to the interior lashes. […]
Once the head was correctly positioned on an appropriate mechanism, the lashes were frontally photographed using a Reflex Nikon D300 (12.3 megapixel) digital camera with a "macro" (60 mm F/2.8 GED) lens and a flash. The images were analysed with special software. […] The lengths and diameters were measured on the lashes of segments S2, S3 and S4 (5 lashes per segment) on each side. […]

[3] = test system: lashes; assay: Blind clinical evaluation of lash photos by 3 trained experts (lengthening, thickening); details: summary statement
Procedure: Concurrent to this quantitative metrological study, two other evaluations were performed: one clinical evaluation in which trained experts scored photos and another evaluation in which the volunteers themselves evaluated the perceived effects using a multi-item questionnaire.
as §2
Table 3: Blind evaluation performed by 3 trained experts on lash lengthening in photos of 30 volunteers.
Table 4: Blind evaluation performed by 3 trained experts on increased lash diameter in photos of 30 volunteers

Structure (SMILES): NCCCC[C@H](NC(=O)[C@H](Cc1c[nH]cn1)NC(=O)CNC(=O)CCCC[C@@H]1SC[C@@H]2NC(=O)N[C@@H]21)C(=O)O [Biot-GHK peptide, Biotinoyl tripeptide-1] (Biotin-Gly-His-Lys-OH)
- Result higher than the increase of parameters with the placebo [1]: about 60%
- Increase printed as "volume" [2]: +14.2 mm^3
- Subjects in whom the variation was observed (first of "respectively": length) [3]: 87%
- Subjects in whom the variation was observed (second of "respectively": diameter, printed volume) [3]: 73%
